The values that follow come from ChEMBL document CHEMBL1148171, “Flavonoids from Koelreuteria henryi and other sources as protein-tyrosine kinase inhibitors” (J Nat Prod, 1993).

Converted amounts (≈) assume the structure as drawn.

One may read the IC50 as the point on the concentration scale where inhibition reaches its midpoint.

The assay in a line: Inhibition of bovine thymus p56-LCK protein tyrosine kinase activity. Details: species or system Bos taurus.
In turn, `O=c1c(O[C@H]2OC[C@@H](O)[C@@H](O)[C@@H]2O)c(-c2ccc(O)cc2)oc2cc(O)cc(O)c12` had a half-inhibitory concentration (IC50) of 200 µg/mL (≈ 478 µM). As to `O=c1cc(-c2ccc(O)cc2)oc2cc(O)cc(O)c12` [APIGENIN], the IC50 worked out at 4 µg/mL (≈ 14.8 µM). The same measure for `O=c1c(O)c(-c2ccccc2O)oc2cc(O)cc(O)c12` [DATISCETIN]: 60 µg/mL (≈ 210 µM). The compound `Cc1cc(O)c2c(c1)C(=O)c1cc(O)cc(O)c1C2=O` [EMODIN] returned an IC50 of 10 µg/mL (≈ 37 µM).

For `O=c1c(O)c(-c2ccccc2)oc2cc(O)cc(O)c12` [GALANGIN], the IC50 stood at 30 µg/mL (≈ 111 µM). Against the preceding compound, the IC50 is about 3-fold higher.

Turning to `COc1ccc(-c2oc3cc(O)cc(O)c3c(=O)c2O)cc1` [KAEMPFERIDE], the IC50 was 30 µg/mL (≈ 99.9 µM).

Compound `C[C@H]1O[C@H](Oc2c(-c3ccc(O)cc3)oc3cc(O)cc(O)c3c2=O)[C@@H](O)[C@@H](O)[C@@H]1O` [KAEMPFEROL-3-O-RHAMNOSIDE] returned an IC50 of 400 µg/mL (≈ 925 µM). The same measure for `O=c1c(O)c(-c2ccc(O)cc2)oc2cc(O)cc(O)c12` [KAEMPFEROL]: 8 µg/mL (≈ 27.9 µM); for `O=c1cc(-c2ccc(O)c(O)c2)oc2cc(O)cc(O)c12` [LUTEOLIN]: 4 µg/mL (≈ 14 µM). `O=c1c(O)c(-c2ccc(O)cc2O)oc2cc(O)cc(O)c12` [MORIN]: the IC50 worked out at 50 µg/mL (≈ 165 µM). With `O=c1c(O)c(-c2cc(O)c(O)c(O)c2)oc2cc(O)cc(O)c12` [MYRICETIN] the figure was 10 µg/mL (≈ 31.4 µM); with `O=c1c(O)c(-c2ccc(O)c(O)c2)oc2cc(O)cc(O)c12` [QUERCETIN], 8 µg/mL (≈ 26.5 µM). In the case of `O=c1c(O)c(-c2ccc(O)cc2)oc2cc(O)ccc12` [RESOKAEMPFEROL], the concentration for half-maximal inhibition (IC50) came out at 5 µg/mL (≈ 18.5 µM).
